Test results taken from patent US9115092B2, “Substituted quinazoline and pyrido-pyrimidine derivatives” (Asana Biosciences, LLC, priority 2010, dated 2015).

Tests used:
[1] = target: T1, PI3Kα (wild-type), P110/P85α (Homo sapiens, UniProt P42336); test: PI3 Kinase TR-FRET assay, PI3Kα (wild-type); assay type: biochemical
T1 construct: made in house; host or cells: SF9 insect cells
Method in brief: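 Sf9-expressed His-purified P110/P85α (5 ng) preincubated 60 min RT with compound and PIP2 in buffer with 40 mM MgCl2, 5 mM DTT; reaction started with ATP (PIP2 and ATP both 10 μM), 30 min RT. PIP3 detected by TR-FRET displacement, 665/615 nm ratio; IC50 from dose-response curves.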

[2] = tested on: pS6RP(S235/236), PC3 cells; test: In-cell Western assay, pS6RP(S235/236) in PC3 cells; assay type: cell-based, human; settings: Homo sapiens, PC-3, In-cell Western
Method in brief: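 Overnight-seeded PC3 cells were treated 2 h with serially diluted compound, then fixed and immunostained with phospho-specific primary antibodies and Eu-labelled secondary. Time-resolved Eu signal read at 615 nm (ex 340 nm), normalised by Hoechst 33258 staining (ex 355/em 460 nm); IC50 from sigmoidal dose-response fit.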

[3] = tested on: PC3 cells; test: XTT assay for cell viability, PC3 cells; assay type: cell-based, human; settings: Homo sapiens, PC-3, cell viability
Method in brief: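 PC3 cells seeded at 1000 cells/well, grown 24 h, then exposed to serial dilutions of compound for 96 h. Viability read by XTT dye at 37° C, absorbance 465 nm. EC50 from sigmoidal dose-response fit.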

[4] = target: T2, mTOR kinase (Homo sapiens, UniProt P42345); test: mTOR kinase TR-FRET assay; assay type: biochemical; settings: read-out: mTO R
T2 construct: purchased Millipore, USA
Method in brief: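 Compounds preincubated 60 min with mTOR (5 ng) in HEPES pH 7.5, EGTA, MnCl2; ULight-p70 S6K Thr389 peptide (50 nM) and ATP (20 μM) then added, 60 min at room temperature. EDTA-stopped, Eu-anti-phospho antibody detection by TR-FRET (665/615 nm); IC50 from variable-slope sigmoidal fit.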

T1 sequence (P42336 whole entry): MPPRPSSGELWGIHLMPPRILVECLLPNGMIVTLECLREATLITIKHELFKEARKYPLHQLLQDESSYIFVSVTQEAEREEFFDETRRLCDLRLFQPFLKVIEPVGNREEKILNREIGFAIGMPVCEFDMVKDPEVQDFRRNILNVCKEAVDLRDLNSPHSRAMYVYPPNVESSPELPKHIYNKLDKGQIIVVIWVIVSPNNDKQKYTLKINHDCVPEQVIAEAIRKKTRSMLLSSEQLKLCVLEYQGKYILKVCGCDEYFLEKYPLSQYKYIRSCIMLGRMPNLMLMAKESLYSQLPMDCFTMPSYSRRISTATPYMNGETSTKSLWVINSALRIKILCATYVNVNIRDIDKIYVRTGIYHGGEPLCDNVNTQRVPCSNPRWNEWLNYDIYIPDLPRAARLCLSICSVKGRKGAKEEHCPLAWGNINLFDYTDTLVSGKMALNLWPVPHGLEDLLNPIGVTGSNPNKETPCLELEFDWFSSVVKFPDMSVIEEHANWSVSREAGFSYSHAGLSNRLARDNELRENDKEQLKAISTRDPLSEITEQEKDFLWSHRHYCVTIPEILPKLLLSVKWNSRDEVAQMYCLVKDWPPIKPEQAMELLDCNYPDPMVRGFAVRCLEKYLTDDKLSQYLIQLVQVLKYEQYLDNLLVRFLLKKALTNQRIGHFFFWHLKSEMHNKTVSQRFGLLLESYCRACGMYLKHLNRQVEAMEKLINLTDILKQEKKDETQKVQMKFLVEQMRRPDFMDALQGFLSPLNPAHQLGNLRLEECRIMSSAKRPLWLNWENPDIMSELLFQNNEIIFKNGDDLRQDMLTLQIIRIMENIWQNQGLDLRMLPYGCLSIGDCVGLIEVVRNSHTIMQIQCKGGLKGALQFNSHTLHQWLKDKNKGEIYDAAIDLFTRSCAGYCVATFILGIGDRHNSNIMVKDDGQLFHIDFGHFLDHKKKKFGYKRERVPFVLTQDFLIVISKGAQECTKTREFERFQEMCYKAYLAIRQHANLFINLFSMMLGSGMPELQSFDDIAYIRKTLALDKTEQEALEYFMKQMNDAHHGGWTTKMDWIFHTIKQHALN
T1 sequence (P27986 whole entry partner): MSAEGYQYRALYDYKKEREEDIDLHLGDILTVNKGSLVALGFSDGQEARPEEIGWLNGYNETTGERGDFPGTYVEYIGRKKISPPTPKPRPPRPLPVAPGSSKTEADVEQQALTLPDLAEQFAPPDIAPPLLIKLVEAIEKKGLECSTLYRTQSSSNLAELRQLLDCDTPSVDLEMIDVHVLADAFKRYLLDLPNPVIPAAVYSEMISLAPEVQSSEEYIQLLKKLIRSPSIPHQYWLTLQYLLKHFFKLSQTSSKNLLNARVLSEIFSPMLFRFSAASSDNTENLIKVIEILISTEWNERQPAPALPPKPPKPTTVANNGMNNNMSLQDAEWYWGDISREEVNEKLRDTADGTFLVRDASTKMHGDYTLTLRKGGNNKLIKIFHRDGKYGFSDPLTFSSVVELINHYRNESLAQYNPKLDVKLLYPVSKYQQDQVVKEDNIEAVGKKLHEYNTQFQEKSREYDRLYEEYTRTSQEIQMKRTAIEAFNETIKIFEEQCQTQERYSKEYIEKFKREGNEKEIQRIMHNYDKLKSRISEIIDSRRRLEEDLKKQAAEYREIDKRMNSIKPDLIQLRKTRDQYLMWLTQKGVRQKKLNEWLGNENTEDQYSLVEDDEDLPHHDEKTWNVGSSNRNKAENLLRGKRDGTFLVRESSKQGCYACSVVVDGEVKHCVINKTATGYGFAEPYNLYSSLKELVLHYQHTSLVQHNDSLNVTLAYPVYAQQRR

Row | IC50 [1] [nM] | IC50 [2] [nM] | IC50 [3] [nM] | IC50 [4] [nM] | SMILES
1 | < 50 | 201 to 10000 | 201 to 10000 | < 50 | CN(C)C(=O)c1ccc(NC(=O)Nc2ccc(-c3nc(N4CCOCC4)c4ncc(-c5cncnc5)cc4n3)cc2F)cc1 [Example 101, 4-(3-(2-fluoro-4-(4-morpholino-7-(pyrimidin-5-yl)pyrido[3,2-d]pyrimidin-2-yl)phenyl)ureido)-N,N-dimethyl-benzamide]
2 | < 50 | 201 to 10000 | 201 to 10000 | < 50 | CN(C)C(=O)c1ccc(NC(=O)Nc2ccc(-c3nc(N4CCOCC4)c4ncc(-c5cccnc5)cc4n3)cc2F)cc1 [Example 102, 4-(3-(2-fluoro-4-(4-morpholino-7-(pyridin-3-yl)pyrido[3,2-d]pyrimidin-2-yl)phenyl)ureido)-N,N-dimethyl-benzamide]
3 | < 50 | 201 to 10000 | 201 to 10000 | < 50 | CN(C)C(=O)c1ccc(NC(=O)Nc2ccc(-c3nc(N4CCOCC4)c4ccc(-c5cccnc5)cc4n3)cc2F)cc1 [Example 103, 4-(3-(2-fluoro-4-(4-morpholino-7-(pyridin-3-yl)quinazolin-2-yl)phenyl)ureido)-N,N-dimethyl-benzamide]
4 | 50 to 200 | 201 to 10000 | 201 to 10000 | < 50 | COc1ncc(-c2ccc3c(N4CCOCC4)nc(-c4ccc(NC(=O)Nc5ccc(C(=O)N(C)C)cc5)c(F)c4)nc3c2)cn1 [Example 105, 4-(3-(2-fluoro-4-(7-(2-methoxypyrimidin-5-yl)-4-morpholino-quinazolin-2-yl)phenyl)ureido)-N,N-dimethyl-benzamide]
5 | < 50 | 201 to 10000 | 201 to 10000 | < 50 | CN(C)C(=O)c1ccc(NC(=O)Nc2ccc(-c3nc(N4CCOCC4)c4ncc(-c5cccnc5F)cc4n3)cc2F)cc1 [Example 106, 4-(3-(2-fluoro-4-(7-(2-fluoropyridin-3-yl)-4-morpholino-pyrido[3,2-d]pyrimidin-2-yl)phenyl)ureido)-N,N-dimethyl-benzamide]
6 | < 50 | 201 to 10000 | 201 to 10000 | < 50 | CN(C)C(=O)c1ccc(NC(=O)Nc2ccc(-c3nc(N4CCOCC4)c4cc(F)c(-c5cccnc5F)cc4n3)cc2)cc1 [Example 107, 4-(3-(4-(6-fluoro-7-(2-fluoropyridin-3-yl)-4-morpholino-quinazolin-2-yl)phenyl)ureido)-N,N-dimethyl-benzamide]
7 | < 50 | 501 to 5000 | < 100 | 201 to 10000 | CN(C)C(=O)c1ccc(NC(=O)Nc2ccc(-c3nc(N4CCOCC4)c4cc(F)c(-c5cccnc5F)cc4n3)cn2)cc1 [Example 112, 4-(3-(5-(6-fluoro-7-(2-fluoropyridin-3-yl)-4-morpholino-quinazolin-2-yl)pyridin-2-yl)ureido)-N,N-dimethyl-benzamide]
8 | < 50 | 201 to 10000 | 201 to 10000 | 50 to 200 | CN(C)C(=O)c1ccc(NC(=O)Nc2ccc(-c3nc(N4CCOCC4)c4ncc(-c5cccc(S(C)(=O)=O)c5)cc4n3)cn2)cc1 [Example 115, N,N-dimethyl-4-(3-(5-(7-(3-(methylsulfonyl)phenyl)-4-morpholino-pyrido[3,2-d]pyrimidin-2-yl)pyridin-2-yl)ureido)-benzamide]
9 | < 50 | 201 to 10000 | < 100 | < 50 | COc1ncc(-c2cnc3c(N4CCOCC4)nc(-c4ccc(NC(=O)Nc5ccc(C(=O)N(C)C)cc5)c(F)c4)nc3c2)cn1 [Example 117, 4-(3-(2-fluoro-4-(7-(2-methoxypyrimidin-5-yl)-4-morpholino-pyrido[3,2-d]pyrimidin-2-yl)phenyl)ureido)-N,N-dimethyl-benzamide]
10 | < 50 | 201 to 10000 | 201 to 10000 | < 50 | Cc1noc(C)c1-c1cnc2c(N3CCOCC3)nc(-c3ccc(NC(=O)Nc4ccc(C(=O)N(C)C)cc4)cc3)nc2c1 [Example 120, 4-(3-(4-(7-(3,5-dimethylisoxazol-4-yl)-4-morpholino-pyrido[3,2-d]pyrimidin-2-yl)phenyl)ureido)-N,N-dimethyl-benzamide]
11 | < 50 | 201 to 10000 | 201 to 10000 | < 50 | Cc1noc(C)c1-c1ccc2c(N3CCOCC3)nc(-c3ccc(NC(=O)Nc4ccc(C(=O)N(C)C)cc4)cc3)nc2c1 [Example 121, 4-(3-(4-(7-(3,5-dimethylisoxazol-4-yl)-4-morpholino-quinazolin-2-yl)phenyl)ureido)-N,N-dimethyl-benzamide]
12 | 50 to 200 | 201 to 10000 | 201 to 10000 | < 50 | CN(C)C(=O)c1ccc(NC(=O)Nc2ccc(-c3nc(N4CCOCC4)c4ccc(-c5cncnc5)cc4n3)cc2F)cn1 [Example 123, 5-(3-(2-fluoro-4-(4-morpholino-7-(pyrimidin-5-yl)quinazolin-2-yl)phenyl)ureido)-N,N-dimethylpicolinamide]
13 | < 50 | 201 to 10000 | 201 to 10000 | < 50 | CN(C)C(=O)c1ccc(NC(=O)Nc2ccc(-c3nc(N4CCOCC4)c4ncc(-c5cnc(N)nc5)cc4n3)cc2F)cc1 [Example 127, 4-(3-(4-(7-(2-aminopyrimidin-5-yl)-4-morpholinopyrido[3,2-d]pyrimidin-2-yl)-2-fluorophenyl)ureido)-N,N-dimethyl-benzamide]
14 | 201 to 10000 | 201 to 10000 | < 100 | < 50 | CC1CN(c2nc(-c3ccc(NC(=O)Nc4ccc(C(=O)N(C)C)cc4)cc3)nc3cc(-c4cncnc4)ccc23)CC(C)O1 (stereo not drawn) [Example 128, 4-(3-(4-(4-(2,6-dimethylmorpholino)-7-(pyrimidin-5-yl)quinazolin-2-yl)phenyl)ureido)-N,N-dimethyl-benzamide]
15 | < 50 | < 100 | 501 to 5000 | 50 to 200 | Cc1ccc(-c2ccc3c(N4CCOCC4)nc(-c4ccc(NC(=O)Nc5ccc(C(=O)N(C)C)nc5)nc4)nc3c2)o1 [Example 129, N,N-dimethyl-5-(3-(5-(7-(5-methylfuran-2-yl)-4-morpholino-quinazolin-2-yl)pyridin-2-yl)ureido)picolinamide]
16 | < 50 | 201 to 10000 | 201 to 10000 | < 50 | CN(C)C(=O)c1ccc(NC(=O)Nc2ccc(-c3nc(N4CCOCC4)c4ccc(-c5cccc(S(C)(=O)=O)c5)cc4n3)cc2F)cn1 [Example 130, 5-(3-(2-fluoro-4-(7-(3-(methylsulfonyl)phenyl)-4-morpholino-quinazolin-2-yl)phenyl)ureido)-N,N-dimethylpicolinamide]
17 | < 50 | 201 to 10000 | 201 to 10000 | 50 to 200 | Cc1noc(C)c1-c1ccc2c(N3CCOCC3)nc(-c3ccc(NC(=O)Nc4ccc(C(=O)N(C)C)cc4)c(F)c3)nc2c1 [Example 131, 4-(3-(4-(7-(3,5-dimethylisoxazol-4-yl)-4-morpholino-quinazolin-2-yl)-2-fluorophenyl)ureido)-N,N-dimethyl-benzamide]
18 | 201 to 10000 | 201 to 10000 | 201 to 10000 | 50 to 200 | CC1CN(c2nc(-c3ccc(NC(=O)Nc4ccc(C(=O)N(C)C)cc4)c(F)c3)nc3cc(-c4cncnc4)ccc23)CC(C)O1 (stereo not drawn) [Example 132, 4-(3-(4-(4-(2,6-dimethylmorpholino)-7-(pyrimidin-5-yl)quinazolin-2-yl)-2-fluorophenyl)ureido)-N,N-dimethyl-benzamide]
